In patent US6486160B1, “Pharmaceutical composition for modulating immunity” (Toray Industries, Inc., priority 2001, dated 2002):

Tests used:
Format in all cases: in vivo, human
[1] = tested on: inflammation due to the malignant articular rheumatism; test: Inflammation due to malignant articular rheumatism in the patient; conditions: re-administration, 1.25 mg twice a day
Method: (§1) 2-(4-Methoxyphenyl)-5-(5-methyl-3-oxo-4,5-dihydro-2H-6-pyridazinyl)-benzimidazole (hereunder referred to as imobendan was orally administered to a patient who suffered from heart failure while malignant articular rheumatism set in as a complication and the CRP value thereof was determined with the elapse of time.
(§2) Thus, the administration of Pimobendan was discontinued. Thereafter, Pimobendan was again administered to the patient in a dose of 1.25 mg twice a day to confirm the effect of the drug to reduce the CRP value.

CRP = CRP value by latex agglutination assay in a patient given Pimobendan orally
Method: as §1
The CRP value was determined by the latex agglutination assay disclosed in Senju Osamu, et al.: J. Clin. Lab. Immunol. 19:99-103(1986) according to a method identical to that disclosed in Claus David R. et al.: J. Lab. Clin. Med. 87:120-128(1976).
When Pimobendan was administered to the patient in a dose of 1.25 mg, the CRP value thereof was reduced and therefore, the compound was administered in a dose of 1.25 mg twice a day on and after the next day (this was defined to be the day at which the administration was initiated).
as §2

heart function = test: Echocardiography of the patient; conditions: patient with heart failure, 1.25 mg twice a day

COc1ccc(-c2nc3ccc(C4=NNC(=O)CC4C)cc3[nH]2)cc1 (centres unmarked) [Pimobendan, 2-(4-Methoxyphenyl)-5-(5-methyl-3-oxo-4,5-dihydro-2H-6-pyridazinyl)-benzimidazole]
inflammation due to the malignant articular rheumatism [1]: recovered
CRP value (change) (CRP; after first dose of 1.25 mg, value prior to administration 4.7 mg/dl): reduced
CRP Value (CRP; day 89, in parentheses: day at which Pimobendan was not administered (discontinued)): (5.0) mg/dl
CRP Value (CRP; day 90, in parentheses: day at which Pimobendan was not administered (discontinued)): (2.7) mg/dl
CRP Value (CRP; day 97, in parentheses: day at which Pimobendan was not administered (discontinued)): (2.4) mg/dl
CRP Value (CRP; day 105, in parentheses: day at which Pimobendan was not administered (discontinued)): (3.6) mg/dl
CRP Value (CRP; day 113, in parentheses: day at which Pimobendan was not administered (discontinued)): (3.2) mg/dl
CRP Value (CRP; day 119, in parentheses: day at which Pimobendan was not administered (discontinued)): (2.9) mg/dl
CRP Value (CRP; patient, again 1.25 mg twice a day, day 126 after initiating the administration): 3.0 mg/dL
CRP Value (CRP; patient, again 1.25 mg twice a day, day 127 after initiating the administration): 4.3 mg/dL
CRP Value (CRP; patient, again 1.25 mg twice a day, day 130 after initiating the administration): 3.8 mg/dL
CRP Value (CRP; patient, again 1.25 mg twice a day, day 132 after initiating the administration): 2.1 mg/dL
CRP Value (CRP; patient, again 1.25 mg twice a day, day 137 after initiating the administration): 1.3 mg/dL
CRP Value (CRP; patient, oral 1.25 mg twice a day, day 12 after initiating the administration): 1.7 mg/dL
CRP Value (CRP; patient, oral 1.25 mg twice a day, day 28 after initiating the administration): 6.1 mg/dL
CRP Value (CRP; patient, oral 1.25 mg twice a day, day 61 after initiating the administration): 3.0 mg/dL
CRP Value (CRP; patient, oral 1.25 mg twice a day, day 71 after initiating the administration): 3.3 mg/dL
CRP value (change) (CRP; re-administration, 1.25 mg twice a day after discontinuation): again reduced
CRP value (overall conclusion from Table 1) (CRP; whole test period): reduce the CRP value to a clinically satisfactory level
heart function (heart function): improved
